From the NIST ThermoML archive (doi:10.1021/je901043q)

Assay: xn = mol fraction of the nth substance listed
Details: 101 kPa, Liquid

CCCCn1cc[n+](C)c1.N#C[S-] [1-butyl-3-methylimidazolium thiocyanate] + CCCCCCCCCCO
Details	mass density [kg/m3]	viscosity [mPa·s]
298.15 K, x1 = 0.0747	843.95	13.07
298.15 K, x1 = 0.1621	864.67	15.5
298.15 K, x1 = 0.2537	886.57	18.67
298.15 K, x1 = 0.3512	910.03	22.48
298.15 K, x1 = 0.4924	944.3	28.36
298.15 K, x1 = 0.5922	968.81	32.87
298.15 K, x1 = 0.6659	987.05	36.09
298.15 K, x1 = 0.7576	1009.83	40
298.15 K, x1 = 0.8692	1037.62	45.01
298.15 K, x1 = 0.9587	1059.8	49.31
298.15 K, x1 = 1	1069.79	51.74
308.15 K, x1 = 0.0747	837.19	9.168
308.15 K, x1 = 0.1621	857.99	10.96
308.15 K, x1 = 0.2537	879.95	13.08
308.15 K, x1 = 0.3512	903.51	15.62
308.15 K, x1 = 0.4924	938.02	19.52
308.15 K, x1 = 0.5922	962.63	22.29
308.15 K, x1 = 0.6659	981.01	24.5
308.15 K, x1 = 0.7576	1003.83	27.12
308.15 K, x1 = 0.8692	1031.69	30.46
308.15 K, x1 = 0.9587	1053.86	33.3
308.15 K, x1 = 1	1063.89	34.87
318.15 K, x1 = 0.0747	830.4	6.582
318.15 K, x1 = 0.1621	851.35	7.964
318.15 K, x1 = 0.2537	873.42	9.541
318.15 K, x1 = 0.3512	897.08	11.39
318.15 K, x1 = 0.4924	931.78	14.06
318.15 K, x1 = 0.5922	956.5	16.04
318.15 K, x1 = 0.6659	974.94	17.59
318.15 K, x1 = 0.7576	997.87	19.4
318.15 K, x1 = 0.8692	1025.8	21.56
318.15 K, x1 = 0.9587	1048.02	23.3
318.15 K, x1 = 1	1058.02	24.19
328.15 K, x1 = 0.0747	823.59	4.88
328.15 K, x1 = 0.1621	844.7	5.959
328.15 K, x1 = 0.2537	866.89	7.162
328.15 K, x1 = 0.3512	890.79	8.553
328.15 K, x1 = 0.4924	925.54	10.62
328.15 K, x1 = 0.5922	950.4	11.98
328.15 K, x1 = 0.6659	968.92	12.98
328.15 K, x1 = 0.7576	991.96	14.04
328.15 K, x1 = 0.8692	1019.98	15.15
328.15 K, x1 = 0.9587	1042.2	16.1
328.15 K, x1 = 1	1052.19	16.7
338.15 K, x1 = 0.0747	816.7	3.741
338.15 K, x1 = 0.1621	838	4.567
338.15 K, x1 = 0.2537	860.36	5.526
338.15 K, x1 = 0.3512	884.37	6.586
338.15 K, x1 = 0.4924	919.35	8.183
338.15 K, x1 = 0.5922	944.32	9.243
338.15 K, x1 = 0.6659	962.91	9.998
338.15 K, x1 = 0.7576	986.05	10.76
338.15 K, x1 = 0.8692	1014.18	11.46
338.15 K, x1 = 0.9587	1036.43	12.18
338.15 K, x1 = 1	1046.43	12.73
348.15 K, x1 = 0.0747	809.76	2.909
348.15 K, x1 = 0.1621	831.23	3.578
348.15 K, x1 = 0.2537	853.79	4.411
348.15 K, x1 = 0.3512	877.97	5.195
348.15 K, x1 = 0.4924	913.13	6.455
348.15 K, x1 = 0.5922	938.26	7.278
348.15 K, x1 = 0.6659	956.95	7.875
348.15 K, x1 = 0.7576	980.21	8.487
348.15 K, x1 = 0.8692	1008.43	9.047
348.15 K, x1 = 0.9587	1030.7	9.624
348.15 K, x1 = 1	1040.7	9.98

CCCCn1cc[n+](C)c1.N#C[S-] [1-butyl-3-methylimidazolium thiocyanate] + CCCCCCCCO
Details	mass density [kg/m3]	viscosity [mPa·s]
298.15 K, x1 = 0.0874	847.17	9.062
298.15 K, x1 = 0.1352	860.64	10.03
298.15 K, x1 = 0.2208	884.32	12.08
298.15 K, x1 = 0.3599	921.24	16.3
298.15 K, x1 = 0.4693	949.07	20.44
298.15 K, x1 = 0.5739	974.82	24.86
298.15 K, x1 = 0.675	998.86	29.44
298.15 K, x1 = 0.7673	1020.12	–
298.15 K, x1 = 0.8721	1043.42	39.69
298.15 K, x1 = 0.9619	1062.27	45.09
298.15 K, x1 = 1	1069.79	51.74
308.15 K, x1 = 0.0874	840.37	6.504
308.15 K, x1 = 0.1352	853.92	7.237
308.15 K, x1 = 0.2208	877.72	8.726
308.15 K, x1 = 0.3599	914.82	11.7
308.15 K, x1 = 0.4693	942.78	14.47
308.15 K, x1 = 0.5739	968.64	17.39
308.15 K, x1 = 0.675	992.79	20.38
308.15 K, x1 = 0.7673	1014.13	–
308.15 K, x1 = 0.8721	1037.47	26.63
308.15 K, x1 = 0.9619	1056.33	29.99
308.15 K, x1 = 1	1063.89	34.87
318.15 K, x1 = 0.0874	833.52	4.842
318.15 K, x1 = 0.1352	847.19	5.396
318.15 K, x1 = 0.2208	871.11	6.516
318.15 K, x1 = 0.3599	908.42	8.719
318.15 K, x1 = 0.4693	936.52	10.67
318.15 K, x1 = 0.5739	962.5	12.72
318.15 K, x1 = 0.675	986.77	14.79
318.15 K, x1 = 0.7673	1008.17	–
318.15 K, x1 = 0.8721	1031.58	18.95
318.15 K, x1 = 0.9619	1050.45	21.14
318.15 K, x1 = 1	1058.02	24.19
328.15 K, x1 = 0.0874	826.65	3.691
328.15 K, x1 = 0.1352	840.37	4.158
328.15 K, x1 = 0.2208	864.48	5.003
328.15 K, x1 = 0.3599	902.01	6.654
328.15 K, x1 = 0.4693	930.28	8.141
328.15 K, x1 = 0.5739	956.41	9.644
328.15 K, x1 = 0.675	980.77	11.14
328.15 K, x1 = 0.7673	1002.28	–
328.15 K, x1 = 0.8721	1025.72	14.06
328.15 K, x1 = 0.9619	1044.62	15.59
328.15 K, x1 = 1	1052.19	16.7
338.15 K, x1 = 0.0874	819.63	2.884
338.15 K, x1 = 0.1352	833.53	3.272
338.15 K, x1 = 0.2208	857.82	3.928
338.15 K, x1 = 0.3599	895.62	5.233
338.15 K, x1 = 0.4693	924.05	6.379
338.15 K, x1 = 0.5739	950.33	7.509
338.15 K, x1 = 0.675	974.82	8.648
338.15 K, x1 = 0.7673	996.4	–
338.15 K, x1 = 0.8721	1019.88	10.82
338.15 K, x1 = 0.9619	1038.82	11.94
338.15 K, x1 = 1	1046.43	12.73
348.15 K, x1 = 0.0874	812.55	2.306
348.15 K, x1 = 0.1352	826.58	2.633
348.15 K, x1 = 0.2208	851.13	3.171
348.15 K, x1 = 0.3599	889.21	4.233
348.15 K, x1 = 0.4693	917.85	5.1
348.15 K, x1 = 0.5739	944.27	5.987
348.15 K, x1 = 0.675	968.89	6.874
348.15 K, x1 = 0.7673	990.57	–
348.15 K, x1 = 0.8721	1014.14	8.592
348.15 K, x1 = 0.9619	1033.09	9.462
348.15 K, x1 = 1	1040.7	9.98
